Laboratory results reported in paper PMC5641094, “A peptide antagonist of Prep1-p160 interaction improves ceramide-induced insulin resistance in skeletal muscle cells” (Oncotarget, 2017).
Read-outs that look alike come from different tables or passages of the source.

Assays:
Akt phosphorylation = test: Akt phosphorylation, Western blot; type: cell-based, rat; details: L6 cells with C2cer 10μM or Prep1 transfection, insulin 100nM
Protocol: Figure 5 Effect of Prep1(54-72) peptide on Akt phosphorylation and PGC-1α and GLUT4 protein levels (A-B) L6 control and Prep1 overexpressing cells were stimulated with Insulin (100nM) and/or C2cer (10μM) and incubated with Prep1(54-72). Protein lysates were analyzed by Western blot using antibodies for pAkt, Akt and for the beta-actin, as a loading control. (C) PGC-1α and GLUT4 protein levels were measured by using specific antibodies for these proteins and beta-actin antibody was used as loading control. Blots were detected by ECL and autoradiography. The autoradiographs are representative of four independent experiments. Asterisks denote statistically significant differences (*p<0.05; **p<0.01; ***p<0.001).
Total cell lysates were obtained and separated by SDS-PAGE. Briefly, cells were solubilized with lysis buffer containing 50mM HEPES, 150mM NaCl, 10mM EDTA, 10mM Na4P2O7, 2mM sodium orthovanadate, 50mM NaF, 1mM phenylmethylsulfonyl fluoride, 10μg/ml aprotinin, 10μg/ml leupeptin, pH 7.4, and 1% (v/v) Triton X-100. Lysates were clarified by centrifugation at 12,000g for 20 minutes at 4°C. The protein concentrations in the cell lysates were measured using a Bio-Rad DC (detergent compatible) assay. Immunoprecipitation and Western blot analysis have been performed as previously described.

p160_20-160 = molecular target: T1, p160_20-160 (Homo sapiens, UniProt Q9BQG0); test: ELISA-like direct binding of biotinylated Prep1 peptides to coated p160_20-160; details: N-terminally biotinylated peptide variants; plate coated with p160_20-160 (0.1μM); streptavidin-HRP; one-site binding fit; triplicate, performed at least twice
T1 construct: were added to a plate coated with p160_20-160 (0.1μM); His6; made in house
T1 sequence (Q9BQG0 20-160): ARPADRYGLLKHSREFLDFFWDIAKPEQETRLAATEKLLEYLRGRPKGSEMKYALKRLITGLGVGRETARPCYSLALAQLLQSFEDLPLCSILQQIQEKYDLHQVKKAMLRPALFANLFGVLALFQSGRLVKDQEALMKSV
From the text: To address the significance of the association between Prep1 and p160 mediated by C2cer, we generated a synthetic inhibitor of the Prep1/p160 interaction. […] The synthetic peptide covering such stretch of residues was therefore chosen to generate a potential inhibitor. […] Thus, we designed and chemically synthesized a peptide spanning residues 59-72, hereafter Prep1(59-72), which comprises the predicted α-helix and a short loop at the N-terminus (Supplementary Figure 2A, upper panel). […]
(§1) Figure 3 Design and in vitro effects of Prep1(54-72) peptide on Prep1/p160 association (A) Binding curves of Prep1(59-72) and Prep1(54-72) peptides to p160_20-160 by ELISA-like assays. […] (C) L6 cells were incubated with increasing concentrations of the fluorescein-conjugated peptide (FITC-Prep1(54-72)) and peptide uptake was detected by FACS analysis of fluorescein-labeled cells. […] Protein lysates were immunoprecipitated with Prep1 antibodies and analyzed by Western blot using antibodies for p160 or for Prep1. […] The blots were detected by ECL and autoradiography. […]
ELISA experiments were performed using an integrated platform for High-Throughput Screening (Hamilton Robotics, Bonaduz, CH) comprising a fully equipped Starlet 8 channel liquid handler, a robotic arm, a washer and a multi-wavelength plate reader. […] The binding was detected by anti-His HRP-conjugated antibody. […]

[1] = molecular target: T2, p160_20-160/Prep1_45-155 binding (Homo sapiens, UniProt Q9BQG0); test: ELISA-like competition of p160_20-160/Prep1_45-155 binding
T2 construct: pre-incubating the His6-tagged-p160_20-160 at 0.25μM with peptides; made in house
T2 sequence (Q9BQG0 20-160): T1 sequence (Q9BQG0 20-160)
From the text: To address the significance of the association between Prep1 and p160 mediated by C2cer, we generated a synthetic inhibitor of the Prep1/p160 interaction. […] The synthetic peptide covering such stretch of residues was therefore chosen to generate a potential inhibitor. […] Thus, we designed and chemically synthesized a peptide spanning residues 59-72, hereafter Prep1(59-72), which comprises the predicted α-helix and a short loop at the N-terminus (Supplementary Figure 2A, upper panel). We also designed and prepared an additional peptide with a slightly longer N-terminal end, named Prep1(54-72) (Supplementary Figure 2A, lower panel), to increase the probability of obtaining a molecule with helical features. […] In order to test the affinity of Prep1 synthetic peptides to p160 protein, ELISA-like experiments were developed where N-terminally biotinylated peptide variants were added to p160_20-160 – coated 96-well plates. As shown in Figure 3A either variants bound p160_20-160 domain in a dose-dependent and saturable manner. […]
as §1
ELISA experiments were performed using an integrated platform for High-Throughput Screening (Hamilton Robotics, Bonaduz, CH) comprising a fully equipped Starlet 8 channel liquid handler, a robotic arm, a washer and a multi-wavelength plate reader. […] In particular, several concentrations of biotinylated peptides at several concentrations were added to a plate coated with p160_20-160 (0.1μM) and binding was detected with streptavidin-HRP. […] The binding was detected by anti-His HRP-conjugated antibody. […]

Kd (p160_20-160): 0.18 µM
IC50 ([1]; His6-p160_20-160 0.25μM pre-incubated with peptide 0.001-10μM, plate coated with Prep1_45-155 (0.10μM), anti-His HRP, average of three experiments, read-out: IC50, inhibition of p160_20-160/Prep1_45-155 binding): 0.2 µM
IC50 ([1]; as restated in the discussion, read-out: IC50, potency in vitro as complex inhibitor): ~0.2 µM
Substance: Ac-KQAIYRHPLFPLLALLFEK-NH2 [Prep1(54-72)]
effect on insulin stimulated Akt phosphorylation (Akt phosphorylation): rescued insulin effect
